In brackets after ≈: the same amount, converted by molar mass. Read-outs that look alike come from different tables or passages of the source. Marks after values point to notes of the source that are not given here. Where a SMILES comes first, the peptide text is derived from it. [ ]: non-standard residue; d: D form. The star is where a group is joined. Phe(4-NO2) = N[C@@H](Cc1ccc([N+](=O)[O-])cc1)C(=O)O; Phe(4-NH2) = Nc1ccc(C[C@H](N)C(=O)O)cc1; 4Abz = Nc1ccc(C(=O)O)cc1; Propionyl = CCC(=O)*; Bz = O=C(c1ccccc1)*

One data set has as its system 2.2.15 cells. Put plainly: Cytotoxicity (TC50, median toxic concentration) in 2.2.15 cells. It counts as cell-based. Here is the method:
(§1) Cell control wells were simultaneously set up. […] IC50 and SI were calculated, respectively.

In the next data set the test system is HBV DNA replication. The data set is described as follows: In vitro anti-HBV: inhibition of HBV DNA replication in 2.2.15 cells (dot blot). The format is cell-based, hepatitis B virus. The settings on record: Hepatitis B virus, 192 h, day 8, dot blot. The procedure:
as §1

The next data set relates to DHBV-DNA. The data set is described as follows: In vivo inhibition of DHBV-DNA in DHBV-infected ducklings. As to conditions: 50.0 mg/kg, intraperitoneal daily. From the text:
Test compounds: the compound prepared in Example 75
Test method: One-day-old ducklings were infected with serum containing DHBV positive virus (about 10^8-9 virions/ml). After a week, blood was collected and tested. The successfully transfected ducklings were randomly divided into three to five groups. Blank group, positive control group and treatment group(s) (one to three groups) were subjected to treatment tests. The treatment groups were divided into high, median and low dose groups. Intraperitoneal injection was carried out daily for ten days. Physiological saline was used to replace drugs in the blank group. Lamivudine was administered in the positive control group. […] Serum was separated and kept at −70° C. for tests. Duck hepatitis B virus surface antigen (DHBsAg) was assayed with DHBsAg dot molecular hybridization (DOT EIA). Duck hepatitis B virus deoxyribonucleic acid (DHBV DNA) contents in serum and duck livers were assayed with dot blot hybridization.

The next data set concerns HBsAg. Put plainly: In vitro anti-HBV: inhibition of HBsAg secretion in 2.2.15 cell supernatant (RIA). It counts as cell-based, hepatitis B virus. As to conditions: Hepatitis B virus, 192 h, read-out: Inhibition of HBsAg IC50. The procedure:
Test Principle: • 2.2.15 cells were used as a vector of hepatitis B virus. Samples were assayed for their abilities to inhibit […] to carry out DNA replication and to produce HBsAg and HBeAg.
Test Materials and Method: • a. cell line: 2.2.15 cells; • b. treatment of samples: A sample was dissolved in DMSO in a suitable concentration right before use. The resulting solution was diluted in triple folds with culture media. There are eight dilutions. • c. positive control: Lamivudine (3TC) produced by Glaxo Wellcome; • d. reagents: radioimmunological kits of e antigen and s antigen of hepatitis B virus, α^32PdCTP; • e. test method: 2.2.15 cells were seeded in a 96-well microplate. After 36 hours, samples and positive controls in the above dilutions were added into the wells. Cell control wells were simultaneously set up. Culture media were replaced with fresh culture media containing samples in different dilutions, respectively, after 96 hours of addition of samples and positive controls. At the eighth day of addition of samples and positive controls, cell supernatants and 2.2.15 cells were harvested, respectively. Secretory volumes of HBsAg and HBeAg in the cell supernatants were assayed with the RIA method. The degree of HBV DNA replication in the cells was assayed with dot blot method. IC50 and SI were calculated, respectively.

`Nc1ccn([C@@H]2CS[C@H](CO)O2)c(=O)n1` [Example 3TC, Lamivudine, reference compound] came in with a TC50 with 2.2.15 cells of 786.00 µg/mL (≈ 3430 µM). This molecule also displayed an IC50 in the data set on HBV DNA replication of 18.9 µg/mL (≈ 82.4 µM). For the same molecule, the “Inhibition Ratio” value was 0.3 with DHBV-DNA (3rd Day of Withdrawal), 53.71^d with DHBV-DNA (5th Day of Test) and 57.22^d in the data set on DHBV-DNA (10th Day of Test). The “OD Value” in the data set on DHBV-DNA (3rd Day of Withdrawal) is reported as 1.54; with DHBV-DNA (5th Day of Test), 0.73^b; in the data set on DHBV-DNA (10th Day of Test) it was 0.68^b.
Molecule `COC(=O)[C@H](Cc1ccc(O)cc1)NC(=O)[C@H](Cc1ccc([N+](=O)[O-])cc1)NC(=O)c1ccccc1` [Example 14, methyl N-(N-benzoyl-4-nitro-L-phenylalanyl)-L-tyrosinate] (Bz-[Phe(4-NO2)]-Tyr-OMe) displayed a melting point of 200 to 202 °C. For the same molecule, the TC50 with 2.2.15 cells worked out at 53.42 µg/mL (≈ 109 µM). Moreover, in the data set on HBV DNA replication, the IC50 turned out to be 1.16 µg/mL (≈ 2.36 µM).
For `COC(=O)[C@H](Cc1ccccc1)NC(=O)[C@H](Cc1ccc(O)cc1)NC(=O)c1ccc(Cl)cc1` [Example 20, methyl N-(N-4-chloro-benzoyl-L-tyrosyl)-L-phenylalaninate] the same measures were 203.5 to 205 °C, 198.46 µg/mL (≈ 413 µM) and 48.5 µg/mL (≈ 101 µM).
For `O=C(N[C@@H](Cc1ccc(O)cc1)C(=O)N[C@H](CO)Cc1ccccc1)c1ccccc1Cl` [Example 22, N-(N-2-chloro-benzoyl-L-tyrosyl)-L-phenylalaninol] the same measures were 168 to 169 °C, 346.68 µg/mL (≈ 765 µM) and 106 µg/mL (≈ 234 µM).
The corresponding values for `COC(=O)[C@H](Cc1ccccc1)NC(=O)[C@H](Cc1ccc(O)cc1)NC(=O)c1ccccc1Cl` [Example 23, methyl N-(N-2-chloro-benzoyl-L-tyrosyl)-L-phenylalaninate] are 175.5 to 177.5 °C, 240.38 µg/mL (≈ 500 µM) and 52 µg/mL (≈ 108 µM).
With `O=C(N[C@@H](Cc1ccc(O)cc1)C(=O)N[C@H](CO)Cc1ccccc1)c1ccc(F)cc1` [Example 24, N-(N-4-fluoro-benzoyl-L-tyrosyl)-L-phenylalaninol], the melting point was 194.5 to 195.5 °C. In the data set with 2.2.15 cells, this molecule registered a TC50 of 396.81 µg/mL (≈ 909 µM). In the data set with HBV DNA replication, this molecule showed an IC50 of 96 µg/mL (≈ 220 µM).
Molecule `COC(=O)[C@H](Cc1ccccc1)NC(=O)[C@H](Cc1ccc(O)cc1)NC(=O)c1ccc(F)cc1` [Example 25, methyl N-(N-4-fluoro-benzoyl-L-tyrosyl)-L-phenylalaninate] showed a melting point of 186.5 to 189 °C. The molecule also displayed a TC50 with 2.2.15 cells of 574.76 µg/mL (≈ 1240 µM). Moreover, in the data set on HBV DNA replication, inhibition was half-maximal at 68.7 µg/mL (≈ 148 µM) (IC50).
For `COC(=O)[C@H](Cc1ccc(O)cc1)NC(=O)[C@H](Cc1ccccc1)NC(=O)c1ccc(NC(C)=O)cc1` [Example 36, methyl N-[N-(4-acetamido-benzoyl)-L-phenylalanyl]-L-tyrosinate] (Ac-[4Abz]-Phe-Tyr-OMe) the same measures were 215.5 to 217 °C, 388.03 µg/mL (≈ 771 µM) and 4.56 µg/mL (≈ 9.06 µM).
On to `CCC(=O)Nc1ccc(C(=O)N[C@@H](Cc2ccccc2)C(=O)N[C@@H](Cc2ccccc2)C(=O)OC)cc1` [Example 37, methyl N-[N-(4-propionamido-benzoyl)-L-phenylalanyl]-L-phenylalaninate] ({Propionyl-4Abz}-Phe-Phe-OMe), for which the melting point was 225 to 227 °C. This molecule also registered a TC50 with 2.2.15 cells of 129.34 µg/mL (≈ 258 µM). Moreover, in the data set on HBV DNA replication, half-maximal inhibition (IC50) required 1.43 µg/mL (≈ 2.85 µM).
The corresponding values for `CCC(=O)Nc1ccc(C(=O)N[C@@H](Cc2ccccc2)C(=O)N[C@@H](Cc2ccc([N+](=O)[O-])cc2)C(=O)OC)cc1` [Example 38, methyl N-[N-(4-propionamido-benzoyl)-L-phenylalanyl]-4-nitro-L-phenylalaninate] ({Propionyl-4Abz}-Phe-[Phe(4-NO2)]-OMe) are 221 to 223 °C, 80.13 µg/mL (≈ 147 µM) and 2.39 µg/mL (≈ 4.37 µM).
On to `CC(=O)Nc1ccc(C(=O)N[C@@H](Cc2ccccc2)C(=O)N[C@H](CO)Cc2ccccc2)cc1` [Example 39, N-[N-(4-acetamido-benzoyl)-L-phenylalanyl]-L-phenylalaninol], for which the melting point was in the range of 193 to 195 °C. Moreover, the TC50 in the data set with 2.2.15 cells amounted to 14.37 µg/mL (≈ 31.3 µM). The molecule also came in with an IC50 in the data set on HBV DNA replication of 0.34 µg/mL (≈ 0.74 µM).
For `O=C(N[C@@H](Cc1ccccc1)C(=O)N[C@H](CO)Cc1ccccc1)c1ccc(CN2CCCC2)cc1` [Example 50, N-{N-[4-(1-pyrrolidyl)methyl-benzoyl]-L-phenylalanyl}-L-phenylalaninol] the same measures were 164 to 165 °C, 64.15 µg/mL (≈ 132 µM) and 7.04 µg/mL (≈ 14.5 µM).
For `O=C(N[C@@H](Cc1ccccc1)C(=O)N[C@H](CO)Cc1ccccc1)c1ccc(CN2CCOCC2)cc1` [Example 51, N-{N-[4-(4-morpholinyl)methyl-benzoyl]-L-phenylalanyl}-L-phenylalaninol] the same measures were 183 to 184.5 °C, 78.52 µg/mL (≈ 157 µM) and 6.98 µg/mL (≈ 13.9 µM).
With `CCOC(=O)c1ccc(C(=O)N[C@@H](Cc2ccccc2)C(=O)N[C@H](CO)Cc2ccccc2)cc1` [Example 52, N-[N-(4-ethoxycarbonyl-benzoyl)-L-phenylalanyl]-L-phenylalaninol], the melting point was in the range of 188 to 189.5 °C. The molecule also came in with a TC50 in the data set with 2.2.15 cells of 89.23 µg/mL (≈ 188 µM). The molecule further came in with an IC50 with HBV DNA replication of 24.2 µg/mL (≈ 51 µM).
For the molecule `COC(=O)[C@H](Cc1ccccc1)NC(=O)[C@H](Cc1ccccc1)N(C(C)=O)C(=O)c1ccccc1` [Example 57, methyl N-(N-benzoyl-acetyl-L-phenylalanyl)-L-phenylalaninate], the melting point lay within 221 to 222 °C. In the data set on 2.2.15 cells, this molecule yielded a TC50 of 451.20 µg/mL (≈ 955 µM). In the data set with HBV DNA replication, this molecule yielded an IC50 of 59.5 µg/mL (≈ 126 µM).
`COC(=O)[C@H](Cc1ccc(OC(C)=O)cc1)NC(=O)[C@H](Cc1ccc(NC(C)=O)cc1)NC(=O)c1ccc(C)cc1` [Example 68, methyl N-[N-(4-methyl-benzoyl)-4-acetamido-L-phenylalanyl]-O-acetyl-L-tyrosinate] had a melting point of 222 to 223 °C. This molecule also registered a TC50 in the data set on 2.2.15 cells of 388.03 µg/mL (≈ 693 µM). This molecule also yielded a half-inhibitory concentration (IC50) with HBV DNA replication of 13.1 µg/mL (≈ 23.4 µM).
For `CCCCOc1ccc(C[C@H](NC(=O)[C@H](Cc2ccccc2)NC(=O)c2ccccc2)C(=O)OC)cc1` [Example 72, methyl N-(N-benzoyl-L-phenylalanyl)-O-n-butyl-L-tyrosinate], the melting point is 177 to 178 °C. In the data set on 2.2.15 cells, this molecule yielded a TC50 of 577.35 µg/mL (≈ 1150 µM). The molecule also gave an IC50 with HBV DNA replication of 87.5 µg/mL (≈ 174 µM).
Take `CCCCOc1ccc(C[C@H](NC(=O)[C@H](Cc2ccccc2)NC(=O)c2ccccc2)C(=O)[O-])cc1.[Na+]` [Example 74, N-(N-benzoyl-L-phenylalanyl)-O-n-butyl-L-tyrosine sodium salt]: the TC50 with 2.2.15 cells was more than 500 µg/mL. Also, the IC50 was found to be 25.2 µg/mL in the data set on HBsAg (2.2.15 cells, day 8, RIA) and 33 µg/mL in the data set with HBV DNA replication.
As for `O=C(N[C@@H](Cc1ccc(OCO)cc1)C(=O)N[C@H](CO)Cc1ccccc1)c1ccccc1.[Na]` [Example 80, N-[N-benzoyl-O-hydroxymethyl-L-tyrosyl]-L-phenylalaninol sodium salt], the TC50 with 2.2.15 cells came out at 388.03 µg/mL. Further, the IC50 with HBsAg stood at 150 µg/mL; with HBV DNA replication it was 27.3 µg/mL.
The molecule `CC(=O)Nc1ccc(C[C@H](NC(=O)c2ccccc2)C(=O)N[C@@H](Cc2ccccc2)C(=O)O)cc1` [Example 87, N-(N-benzoyl-4-acetamido-L-phenylalanyl)-L-phenylalanine] (Bz-[Phe(4-NH2)](Ac)-Phe-OH) yielded a melting point of 233.5 to 235.5 °C. Also, the TC50 with 2.2.15 cells worked out at 43.11 µg/mL (≈ 91 µM). In the data set with HBV DNA replication, the IC50 was 1.81 µg/mL (≈ 3.82 µM).

A word on the IC50: it is the midpoint of a concentration-inhibition curve. The term melting point denotes the temperature, or range, at which the solid turns liquid.

These data come from patent US9023809B2, “Phenylalanine dipeptide derivatives, compositions and use thereof” (The Key Laboratory of Chemistry For Natural Products of …, priority 2008, dated 2015).
